Source: ChEMBL document CHEMBL3817751, “Exploitation of a Novel Binding Pocket in Human Lipoprotein-Associated Phospholipase A2 (Lp-PLA2) Discovered through X-ray Fragment Screening” (J Med Chem, 2016)
Values after ≈ are worked out from the molar mass of the structure shown.

Assays:
[1] = biological target: T1, Platelet-activating factor acetylhydrolase (Homo sapiens, UniProt Q13093); test: Inhibition of human recombinant Lp-PLA2 using PED6 as substrate preincubated for 30 mins followed by substrate addition measured for 20 mins by fluorescence assay
T1 sequence (Q13093 whole entry): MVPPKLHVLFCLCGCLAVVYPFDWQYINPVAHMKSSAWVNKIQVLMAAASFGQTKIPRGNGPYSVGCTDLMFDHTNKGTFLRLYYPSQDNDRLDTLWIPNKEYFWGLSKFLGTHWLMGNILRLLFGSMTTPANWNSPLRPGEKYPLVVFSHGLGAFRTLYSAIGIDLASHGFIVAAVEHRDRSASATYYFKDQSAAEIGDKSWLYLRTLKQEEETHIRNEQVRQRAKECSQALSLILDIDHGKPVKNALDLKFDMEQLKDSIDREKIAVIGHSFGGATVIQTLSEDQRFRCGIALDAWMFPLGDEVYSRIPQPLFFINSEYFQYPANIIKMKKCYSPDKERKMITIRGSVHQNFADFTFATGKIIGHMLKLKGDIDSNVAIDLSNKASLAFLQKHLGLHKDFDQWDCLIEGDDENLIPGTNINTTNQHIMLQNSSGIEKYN

[2] = biological target: T1, Platelet-activating factor acetylhydrolase; test: Inhibition of human recombinant Lp-PLA2 using 2-thio-PAF as substrate after 20 mins by CPM-based fluorescence assay
[3] = Inhibition of human recombinant PLA2-7B using 2-thio-PAF as substrate after 20 mins by CPM-based fluorescence assay
[4] = biological target: T1, Platelet-activating factor acetylhydrolase; test: Inhibition of Lp-PLA2 in human whole plasma using 2-thio-PAF as substrate preincubated for 15 mins followed by substrate addition measured after 3 mins by CPM-based fluorescence assay; type: cell-free
[5] = Lipophilicity, log D of the compound at pH 7.4 by reversed phase HPLC method; type: physicochemical; conditions: buffer
[6] = Solubility of the compound in pH 7.4 phosphate buffered saline after 1 hr by chemiluminescent nitrogen detection assay; type: physicochemical
[7] = Apparent permeability of the compound after 3 hrs by HPLC-UV method; type: physicochemical; conditions: not told
[8] = Binding affinity to human serum albumin/alpha-1 acidglycoprotein after 6 mins by HPLC method; type: ADME; conditions: human serum albumin/alpha-1 acid glycoprotein, read-out: PB (converted)
[9] = biological target: T1, Platelet-activating factor acetylhydrolase; test: Binding affinity to N-terminal His6-tagged Lp-PLA2 (47 to 429 residues) (unknown origin) expressed in sf21 insect cells by ITC assay
Homo sapiens = organism: Homo sapiens; test: Selectivity ratio of IC50 for human recombinant PLA2-7B to IC50 for human recombinant Lp-PLA2

IC50 [1] [µM]	IC50 [2] [µM]	IC50 [3] [µM]	IC50 [4] [µM]	SMILES	other results
	30	> 100		Cc1ccccc1-c1cc(C(=O)N2CCCC2)ccc1C	
	0.0014	> 1	0.018	COC(CO)Cn1ccc(Nc2cc(-c3ccccc3C)c(C)cc2OCCN)n1 (racemic)	chromatographic logD [5]: 3.2; solubility at 1 h [6]: 302 µM (≈ 124 µg/mL); Papp at 3 h [7]: 13 ×10⁻⁶ cm/s; fraction unbound at 0.1 h [8]: 0.05
100	100	43		Cc1ccc(N)cc1-c1ccccc1Cl	
		0.063		CCN(CC)CCN(Cc1ccc(-c2ccc(C(F)(F)F)cc2)cc1)C(=O)Cn1c(SCc2ccc(F)cc2)nc(=O)c2c1CCC2 [DARAPLADIB]	chromatographic logD [5]: 6.2; solubility at 1 h [6]: 8 µM (≈ 5.33 µg/mL); Papp at 3 h [7]: 23 ×10⁻⁶ cm/s; fraction unbound at 0.1 h [8]: 0.02
	0.23	> 10	7.1	Cc1ccccc1-c1cc(Nc2nc(CCCO)cs2)ccc1C	Ratio IC50 (Homo sapiens): > 40
	0.0095	> 10	0.56	COC(CO)Cc1csc(Nc2ccc(C)c(-c3ccccc3C)c2)n1 (racemic)	Ratio IC50 (Homo sapiens): > 1000
	0.0036	6.1	0.32	COc1cc(C)c(-c2ccccc2C)cc1Nc1nc(CC(CO)OC)cs1 (racemic)	

Second part, the molecule before the results:

SMILES	IC50 [1] [µM]	IC50 [2] [µM]	IC50 [3] [µM]	IC50 [4] [µM]	other results
CC(C)COc1cc(=O)n(C)c(=O)n1C	1000				
Cc1ccccc1-c1cc(Nc2nccs2)ccc1C		1.7	11		
NS(=O)(=O)c1ccccc1 [BENZENESULFONAMIDE]	> 1000				Kd [9]: 3400 µM
CC1(C)NC(=O)NC1=O	> 1000				
O=C(c1cccc(F)c1)N1CC=CC1	500				Kd [9]: 980 µM
COC(CO)Cc1csc(Nc2cc(-c3ccccc3C)c(C)cc2OCCN)n1 (racemic)		0.0024	> 10	0.028	chromatographic logD [5]: 3.4; solubility at 1 h [6]: 195 µM (≈ 83.4 µg/mL); Papp at 3 h [7]: 21 ×10⁻⁶ cm/s; fraction unbound at 0.1 h [8]: 0.03
Cc1ccccc1-c1cc(C(=O)N2CC=CC2)ccc1C		0.23	89		
Cc1ccccc1-c1cc(C(=O)c2nccs2)ccc1C		2	3.2		
Cc1ccc(C(=O)N2CC=CC2)cc1-c1ccccc1Cl		0.18	> 10		
